According to ChEMBL document CHEMBL4507276 (2021):

Key:
[1] = target: D(3) dopamine receptor (Homo sapiens) (UniProt P35462); assay: D3/H Cerep selectivity data (BI); conditions: Compound concentration 20.0 uM
[2] = target: Peroxisome proliferator-activated receptor gamma (Homo sapiens) (UniProt P37231); assay: PPARG/H AG Cerep selectivity data (BI); conditions: filed as agonist, Compound concentration 20.0 uM
[3] = target: Somatostatin receptor type 1 (Homo sapiens) (UniProt P30872); assay: SST1H_AGON Cerep selectivity data (BI); conditions: filed as agonist, Compound concentration 20.0 uM
[4] = target: Melatonin receptor type 1A (Homo sapiens) (UniProt P48039); assay: MT1/H Eurofins-Panlabs selectivity data (BI); conditions: Compound concentration 10.0 uM
[5] = target: Death-associated protein kinase 3 (Homo sapiens) (UniProt O43293); assay: DAPK3 Invitrogen selectivity data (BI); conditions: Compound concentration 3.0 uM
[6] = target: Eukaryotic elongation factor 2 kinase (Homo sapiens) (UniProt O00418); assay: EEF2K Invitrogen selectivity data (BI); conditions: Compound concentration 3.0 uM
[7] = target: Epidermal growth factor receptor (Homo sapiens) (UniProt P00533); assay: EGFR Invitrogen selectivity data (BI); conditions: Compound concentration 3.0 uM
[8] = target: Fibroblast growth factor receptor 3 (Homo sapiens) (UniProt P22607); assay: FGFR3 Invitrogen selectivity data (BI); conditions: Compound concentration 3.0 uM
[9] = target: Tyrosine-protein kinase Fyn (Homo sapiens) (UniProt P06241); assay: FYN Invitrogen selectivity data (BI); conditions: Compound concentration 3.0 uM
Sequence of Tyrosine-protein kinase Fyn (Homo sapiens) (P06241 2-537 limits assumed): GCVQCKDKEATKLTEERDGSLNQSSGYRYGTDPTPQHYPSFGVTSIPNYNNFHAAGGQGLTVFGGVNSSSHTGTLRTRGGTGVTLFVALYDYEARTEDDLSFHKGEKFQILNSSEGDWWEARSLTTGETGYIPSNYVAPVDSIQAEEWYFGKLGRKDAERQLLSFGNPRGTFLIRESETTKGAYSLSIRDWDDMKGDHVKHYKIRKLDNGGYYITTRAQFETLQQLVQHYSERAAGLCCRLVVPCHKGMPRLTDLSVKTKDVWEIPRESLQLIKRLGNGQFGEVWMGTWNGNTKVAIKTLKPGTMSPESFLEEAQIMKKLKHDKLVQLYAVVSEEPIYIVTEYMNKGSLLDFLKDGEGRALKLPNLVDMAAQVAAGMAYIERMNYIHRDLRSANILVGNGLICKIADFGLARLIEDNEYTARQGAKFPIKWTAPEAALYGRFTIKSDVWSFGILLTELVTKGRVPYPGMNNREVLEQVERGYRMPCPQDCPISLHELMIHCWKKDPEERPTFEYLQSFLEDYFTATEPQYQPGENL

[10] = target: T1, Tyrosine-protein kinase ITK/TSK (Homo sapiens) (UniProt Q08881); assay: ITK Invitrogen selectivity data (BI); conditions: Compound concentration 3.0 uM
T1 sequence (whole entry): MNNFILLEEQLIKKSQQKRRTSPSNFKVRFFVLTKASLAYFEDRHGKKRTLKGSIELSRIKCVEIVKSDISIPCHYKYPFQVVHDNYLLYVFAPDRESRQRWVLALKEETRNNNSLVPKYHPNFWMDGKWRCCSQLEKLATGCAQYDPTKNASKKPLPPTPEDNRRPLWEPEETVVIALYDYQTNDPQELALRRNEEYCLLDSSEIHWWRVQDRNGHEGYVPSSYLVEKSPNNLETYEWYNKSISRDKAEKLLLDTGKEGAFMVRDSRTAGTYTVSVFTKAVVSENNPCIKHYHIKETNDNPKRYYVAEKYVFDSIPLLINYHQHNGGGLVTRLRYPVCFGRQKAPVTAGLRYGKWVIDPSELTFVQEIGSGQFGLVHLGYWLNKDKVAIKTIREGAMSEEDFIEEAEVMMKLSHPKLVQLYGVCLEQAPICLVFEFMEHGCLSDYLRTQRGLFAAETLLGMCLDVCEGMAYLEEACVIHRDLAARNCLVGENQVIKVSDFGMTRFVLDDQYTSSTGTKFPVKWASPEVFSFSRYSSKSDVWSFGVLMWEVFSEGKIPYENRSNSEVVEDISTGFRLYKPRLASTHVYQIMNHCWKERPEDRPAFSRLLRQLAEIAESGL

[11] = target: Tyrosine-protein kinase JAK1 (Homo sapiens) (UniProt P23458); assay: JAK1 Invitrogen selectivity data (BI); conditions: Compound concentration 3.0 uM
Sequence of Tyrosine-protein kinase JAK1 (Homo sapiens) (P23458 whole entry): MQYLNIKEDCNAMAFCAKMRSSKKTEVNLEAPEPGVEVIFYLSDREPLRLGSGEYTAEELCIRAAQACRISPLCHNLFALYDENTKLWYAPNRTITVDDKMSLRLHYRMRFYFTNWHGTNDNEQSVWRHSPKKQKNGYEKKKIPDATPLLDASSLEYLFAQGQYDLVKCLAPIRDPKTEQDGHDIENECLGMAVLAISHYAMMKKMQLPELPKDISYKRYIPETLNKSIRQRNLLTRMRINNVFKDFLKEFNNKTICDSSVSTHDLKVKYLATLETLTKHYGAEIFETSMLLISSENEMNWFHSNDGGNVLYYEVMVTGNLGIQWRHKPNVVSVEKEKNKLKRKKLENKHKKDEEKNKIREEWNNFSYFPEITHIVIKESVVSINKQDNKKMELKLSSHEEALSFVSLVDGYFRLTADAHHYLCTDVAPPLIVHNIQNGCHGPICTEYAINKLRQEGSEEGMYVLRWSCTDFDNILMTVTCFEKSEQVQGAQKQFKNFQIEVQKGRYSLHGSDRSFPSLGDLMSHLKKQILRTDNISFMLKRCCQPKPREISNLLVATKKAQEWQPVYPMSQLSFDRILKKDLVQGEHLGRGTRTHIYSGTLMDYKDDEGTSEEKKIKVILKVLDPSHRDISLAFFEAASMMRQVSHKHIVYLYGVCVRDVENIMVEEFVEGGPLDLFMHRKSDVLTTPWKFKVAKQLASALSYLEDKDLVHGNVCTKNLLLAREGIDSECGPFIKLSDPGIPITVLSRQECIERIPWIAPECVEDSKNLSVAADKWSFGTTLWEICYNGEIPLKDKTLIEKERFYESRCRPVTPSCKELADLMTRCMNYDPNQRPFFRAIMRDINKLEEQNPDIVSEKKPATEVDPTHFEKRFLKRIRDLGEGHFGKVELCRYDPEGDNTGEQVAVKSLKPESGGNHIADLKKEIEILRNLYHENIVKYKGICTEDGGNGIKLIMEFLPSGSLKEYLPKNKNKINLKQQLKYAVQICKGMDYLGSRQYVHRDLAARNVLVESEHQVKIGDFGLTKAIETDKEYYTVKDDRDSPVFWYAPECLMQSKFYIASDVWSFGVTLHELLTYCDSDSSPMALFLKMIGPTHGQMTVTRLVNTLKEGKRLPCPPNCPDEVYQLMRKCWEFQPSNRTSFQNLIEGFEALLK

[12] = target: Mitogen-activated protein kinase kinase kinase 14 (Homo sapiens) (UniProt Q99558); assay: MAP3K14 Invitrogen selectivity data (BI); conditions: Compound concentration 3.0 uM
[13] = target: BDNF/NT-3 growth factors receptor (Homo sapiens) (UniProt Q16620); assay: NTRK2 Invitrogen selectivity data (BI); conditions: Compound concentration 3.0 uM
Sequence of BDNF/NT-3 growth factors receptor (Homo sapiens) (Q16620 32-822 limits assumed): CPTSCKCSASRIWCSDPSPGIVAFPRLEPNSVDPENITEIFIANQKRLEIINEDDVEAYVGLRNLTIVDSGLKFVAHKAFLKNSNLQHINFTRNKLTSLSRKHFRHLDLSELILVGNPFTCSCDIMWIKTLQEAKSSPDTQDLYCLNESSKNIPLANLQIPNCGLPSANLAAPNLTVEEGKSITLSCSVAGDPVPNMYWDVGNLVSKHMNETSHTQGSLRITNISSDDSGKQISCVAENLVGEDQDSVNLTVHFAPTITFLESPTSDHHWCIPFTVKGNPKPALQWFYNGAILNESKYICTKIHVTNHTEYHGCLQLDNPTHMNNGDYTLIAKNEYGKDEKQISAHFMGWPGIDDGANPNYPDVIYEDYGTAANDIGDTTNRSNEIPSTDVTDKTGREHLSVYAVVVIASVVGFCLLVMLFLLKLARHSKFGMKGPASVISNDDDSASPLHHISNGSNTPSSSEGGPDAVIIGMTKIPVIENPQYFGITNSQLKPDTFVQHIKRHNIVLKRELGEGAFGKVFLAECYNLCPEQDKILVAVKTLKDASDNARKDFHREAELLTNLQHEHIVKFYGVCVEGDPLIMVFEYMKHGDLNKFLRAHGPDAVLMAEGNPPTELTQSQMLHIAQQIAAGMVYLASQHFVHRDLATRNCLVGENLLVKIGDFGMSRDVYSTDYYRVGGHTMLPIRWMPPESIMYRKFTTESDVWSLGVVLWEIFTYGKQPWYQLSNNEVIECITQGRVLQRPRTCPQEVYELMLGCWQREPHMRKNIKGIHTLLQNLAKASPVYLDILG

[14] = target: Platelet-derived growth factor receptor alpha (Homo sapiens) (UniProt P16234); assay: PDGFRA Invitrogen selectivity data (BI); conditions: Compound concentration 3.0 uM
Sequence of Platelet-derived growth factor receptor alpha (Homo sapiens) (P16234 whole entry): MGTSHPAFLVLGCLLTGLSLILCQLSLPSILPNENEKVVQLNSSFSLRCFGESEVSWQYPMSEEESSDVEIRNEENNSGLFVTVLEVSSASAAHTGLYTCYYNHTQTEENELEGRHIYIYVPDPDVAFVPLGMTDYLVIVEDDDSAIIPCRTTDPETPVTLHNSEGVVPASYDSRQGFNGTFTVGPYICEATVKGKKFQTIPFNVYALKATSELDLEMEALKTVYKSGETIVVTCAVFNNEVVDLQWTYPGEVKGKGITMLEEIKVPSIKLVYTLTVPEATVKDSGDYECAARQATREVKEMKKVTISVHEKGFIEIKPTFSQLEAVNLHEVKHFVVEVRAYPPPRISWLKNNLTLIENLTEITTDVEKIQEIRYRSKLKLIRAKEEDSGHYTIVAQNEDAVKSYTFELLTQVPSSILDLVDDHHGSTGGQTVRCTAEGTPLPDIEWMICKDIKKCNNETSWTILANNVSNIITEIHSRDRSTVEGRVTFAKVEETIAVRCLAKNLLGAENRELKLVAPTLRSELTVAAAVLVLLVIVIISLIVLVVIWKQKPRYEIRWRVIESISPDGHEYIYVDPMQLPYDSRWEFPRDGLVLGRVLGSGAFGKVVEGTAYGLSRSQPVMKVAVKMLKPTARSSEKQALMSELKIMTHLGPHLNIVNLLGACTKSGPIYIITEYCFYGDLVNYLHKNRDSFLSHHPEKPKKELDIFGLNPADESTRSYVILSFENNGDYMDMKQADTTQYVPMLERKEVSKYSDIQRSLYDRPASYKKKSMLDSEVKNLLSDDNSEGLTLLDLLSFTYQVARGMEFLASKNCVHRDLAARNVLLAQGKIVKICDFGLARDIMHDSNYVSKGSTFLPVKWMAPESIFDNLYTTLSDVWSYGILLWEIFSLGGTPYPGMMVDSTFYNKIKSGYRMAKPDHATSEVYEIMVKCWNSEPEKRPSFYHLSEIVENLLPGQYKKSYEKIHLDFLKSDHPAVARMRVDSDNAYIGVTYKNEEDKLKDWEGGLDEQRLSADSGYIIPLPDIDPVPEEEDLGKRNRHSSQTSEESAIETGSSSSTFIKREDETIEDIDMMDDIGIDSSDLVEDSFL

[15] = target: Serine/threonine-protein kinase PLK2 (Homo sapiens) (UniProt Q9NYY3); assay: PLK2 Invitrogen selectivity data (BI); conditions: Compound concentration 3.0 uM
[16] = target: T2, Protein kinase C iota type (Homo sapiens) (UniProt P41743); assay: PRKCI Invitrogen selectivity data (BI); conditions: Compound concentration 3.0 uM
T2 sequence (whole entry): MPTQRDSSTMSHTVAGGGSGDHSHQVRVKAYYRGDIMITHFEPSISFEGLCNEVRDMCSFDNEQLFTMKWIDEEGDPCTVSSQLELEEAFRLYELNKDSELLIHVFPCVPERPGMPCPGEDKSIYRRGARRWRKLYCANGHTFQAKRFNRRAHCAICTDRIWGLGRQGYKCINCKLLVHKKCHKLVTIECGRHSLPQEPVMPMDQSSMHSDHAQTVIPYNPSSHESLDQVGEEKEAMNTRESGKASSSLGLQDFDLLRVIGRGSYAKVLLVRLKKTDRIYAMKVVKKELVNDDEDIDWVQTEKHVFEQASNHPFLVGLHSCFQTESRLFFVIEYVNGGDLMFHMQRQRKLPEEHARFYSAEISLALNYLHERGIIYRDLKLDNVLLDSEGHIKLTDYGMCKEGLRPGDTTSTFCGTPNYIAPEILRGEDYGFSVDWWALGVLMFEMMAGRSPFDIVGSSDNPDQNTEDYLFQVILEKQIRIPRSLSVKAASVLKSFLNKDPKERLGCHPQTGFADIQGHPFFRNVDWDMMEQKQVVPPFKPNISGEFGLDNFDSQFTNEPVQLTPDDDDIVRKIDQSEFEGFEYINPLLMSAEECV

[17] = target: T3, Dual specificity protein kinase TTK (Homo sapiens) (UniProt P33981); assay: TTK Invitrogen selectivity data (BI); conditions: Compound concentration 3.0 uM
T3 sequence (whole entry): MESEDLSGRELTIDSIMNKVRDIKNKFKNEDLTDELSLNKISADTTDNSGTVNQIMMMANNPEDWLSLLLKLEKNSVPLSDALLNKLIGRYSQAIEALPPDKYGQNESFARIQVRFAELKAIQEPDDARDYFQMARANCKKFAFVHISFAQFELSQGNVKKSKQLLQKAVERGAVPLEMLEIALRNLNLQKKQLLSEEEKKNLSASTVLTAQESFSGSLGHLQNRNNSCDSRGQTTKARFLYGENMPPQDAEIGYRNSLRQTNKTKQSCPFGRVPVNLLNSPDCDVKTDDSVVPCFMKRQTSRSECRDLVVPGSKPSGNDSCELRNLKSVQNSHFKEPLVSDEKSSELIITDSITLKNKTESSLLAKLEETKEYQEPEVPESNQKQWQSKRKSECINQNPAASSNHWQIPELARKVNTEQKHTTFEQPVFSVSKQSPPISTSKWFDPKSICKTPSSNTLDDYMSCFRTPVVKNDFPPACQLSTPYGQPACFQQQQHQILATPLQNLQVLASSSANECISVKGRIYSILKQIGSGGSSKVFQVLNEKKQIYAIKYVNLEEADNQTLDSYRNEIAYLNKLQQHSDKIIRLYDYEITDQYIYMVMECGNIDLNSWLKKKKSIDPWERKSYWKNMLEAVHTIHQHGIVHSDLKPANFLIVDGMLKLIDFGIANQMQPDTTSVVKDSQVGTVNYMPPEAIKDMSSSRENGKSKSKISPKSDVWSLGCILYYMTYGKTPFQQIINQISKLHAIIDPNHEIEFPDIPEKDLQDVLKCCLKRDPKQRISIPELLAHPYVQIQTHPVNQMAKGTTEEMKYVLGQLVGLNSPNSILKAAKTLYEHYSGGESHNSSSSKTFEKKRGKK

[18] = target: 5-hydroxytryptamine receptor 1B (Homo sapiens) (UniProt P28222); conditions: Compound concentration 10.0 uM
Sequence of 5-hydroxytryptamine receptor 1B (Homo sapiens) (P28222 whole entry): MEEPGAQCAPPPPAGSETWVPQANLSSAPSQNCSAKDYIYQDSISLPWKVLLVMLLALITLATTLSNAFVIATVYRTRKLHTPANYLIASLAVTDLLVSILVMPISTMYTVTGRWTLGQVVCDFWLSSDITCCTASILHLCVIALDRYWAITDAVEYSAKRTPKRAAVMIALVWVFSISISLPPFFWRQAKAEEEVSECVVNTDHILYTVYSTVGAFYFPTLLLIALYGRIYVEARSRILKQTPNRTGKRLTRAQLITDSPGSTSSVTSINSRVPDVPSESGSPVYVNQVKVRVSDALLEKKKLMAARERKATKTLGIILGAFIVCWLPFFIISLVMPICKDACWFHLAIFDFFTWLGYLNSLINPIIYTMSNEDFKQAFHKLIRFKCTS

Sequence of Peroxisome proliferator-activated receptor gamma (Homo sapiens) (P37231 whole entry): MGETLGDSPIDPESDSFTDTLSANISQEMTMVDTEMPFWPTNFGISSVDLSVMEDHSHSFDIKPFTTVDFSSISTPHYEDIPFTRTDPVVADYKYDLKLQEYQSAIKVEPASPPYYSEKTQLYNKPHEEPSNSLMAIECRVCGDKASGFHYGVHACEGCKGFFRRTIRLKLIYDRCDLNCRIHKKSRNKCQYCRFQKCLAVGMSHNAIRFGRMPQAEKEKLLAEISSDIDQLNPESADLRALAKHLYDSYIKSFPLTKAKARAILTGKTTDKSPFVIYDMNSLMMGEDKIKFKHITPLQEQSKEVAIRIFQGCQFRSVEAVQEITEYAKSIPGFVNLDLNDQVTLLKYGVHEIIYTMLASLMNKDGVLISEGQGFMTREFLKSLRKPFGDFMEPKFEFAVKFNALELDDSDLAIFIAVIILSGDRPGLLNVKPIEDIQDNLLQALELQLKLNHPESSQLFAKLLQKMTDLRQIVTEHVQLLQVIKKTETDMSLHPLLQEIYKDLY
Sequence of D(3) dopamine receptor (Homo sapiens) (P35462 whole entry): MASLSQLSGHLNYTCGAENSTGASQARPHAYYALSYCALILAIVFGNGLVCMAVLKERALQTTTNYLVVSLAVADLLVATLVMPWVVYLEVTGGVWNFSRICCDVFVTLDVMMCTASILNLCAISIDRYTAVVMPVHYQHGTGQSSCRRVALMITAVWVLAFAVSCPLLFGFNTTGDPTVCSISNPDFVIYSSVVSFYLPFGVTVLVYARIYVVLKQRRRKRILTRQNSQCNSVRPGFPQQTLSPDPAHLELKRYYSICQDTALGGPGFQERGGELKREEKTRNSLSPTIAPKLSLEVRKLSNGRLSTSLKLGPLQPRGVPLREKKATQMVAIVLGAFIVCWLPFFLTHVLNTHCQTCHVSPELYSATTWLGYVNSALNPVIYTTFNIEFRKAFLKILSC

CN(C)C(=O)Cn1cc(-c2nc([C@@](C)(c3ccc(-c4cnc(N)nc4)cc3)C3CC3)no2)cn1 [BI 665915]
inactive: residual activity [1] 100% | residual activity [2] 93% | residual activity [3] 96% | residual activity [4] 96% | residual activity [5] 99% | residual activity [6] 93.5% | residual activity [7] 104% | residual activity [8] 95.5% | residual activity [9] 96.5% | residual activity [10] 94% | residual activity [11] 100% | residual activity [12] 98% | residual activity [13] 94.5% | residual activity [14] 86% | residual activity [15] 90% | residual activity [16] 97% | residual activity [17] 98% | inhibition [18] -3.77%
